Experimental findings from patent US10533000B2, “Metabotrophic glutamate receptor 5 modulators and methods of use thereof” (Sunovion Pharmaceuticals, Inc., priority 2011, dated 2020) are described below.

The term EC50 denotes the midpoint of the concentration-response curve. Low values mean higher potency in that assay, high ones lower potency in that assay.

SMILES strings stand for the structures.

mGluR5, sequence (P41594 21-1212): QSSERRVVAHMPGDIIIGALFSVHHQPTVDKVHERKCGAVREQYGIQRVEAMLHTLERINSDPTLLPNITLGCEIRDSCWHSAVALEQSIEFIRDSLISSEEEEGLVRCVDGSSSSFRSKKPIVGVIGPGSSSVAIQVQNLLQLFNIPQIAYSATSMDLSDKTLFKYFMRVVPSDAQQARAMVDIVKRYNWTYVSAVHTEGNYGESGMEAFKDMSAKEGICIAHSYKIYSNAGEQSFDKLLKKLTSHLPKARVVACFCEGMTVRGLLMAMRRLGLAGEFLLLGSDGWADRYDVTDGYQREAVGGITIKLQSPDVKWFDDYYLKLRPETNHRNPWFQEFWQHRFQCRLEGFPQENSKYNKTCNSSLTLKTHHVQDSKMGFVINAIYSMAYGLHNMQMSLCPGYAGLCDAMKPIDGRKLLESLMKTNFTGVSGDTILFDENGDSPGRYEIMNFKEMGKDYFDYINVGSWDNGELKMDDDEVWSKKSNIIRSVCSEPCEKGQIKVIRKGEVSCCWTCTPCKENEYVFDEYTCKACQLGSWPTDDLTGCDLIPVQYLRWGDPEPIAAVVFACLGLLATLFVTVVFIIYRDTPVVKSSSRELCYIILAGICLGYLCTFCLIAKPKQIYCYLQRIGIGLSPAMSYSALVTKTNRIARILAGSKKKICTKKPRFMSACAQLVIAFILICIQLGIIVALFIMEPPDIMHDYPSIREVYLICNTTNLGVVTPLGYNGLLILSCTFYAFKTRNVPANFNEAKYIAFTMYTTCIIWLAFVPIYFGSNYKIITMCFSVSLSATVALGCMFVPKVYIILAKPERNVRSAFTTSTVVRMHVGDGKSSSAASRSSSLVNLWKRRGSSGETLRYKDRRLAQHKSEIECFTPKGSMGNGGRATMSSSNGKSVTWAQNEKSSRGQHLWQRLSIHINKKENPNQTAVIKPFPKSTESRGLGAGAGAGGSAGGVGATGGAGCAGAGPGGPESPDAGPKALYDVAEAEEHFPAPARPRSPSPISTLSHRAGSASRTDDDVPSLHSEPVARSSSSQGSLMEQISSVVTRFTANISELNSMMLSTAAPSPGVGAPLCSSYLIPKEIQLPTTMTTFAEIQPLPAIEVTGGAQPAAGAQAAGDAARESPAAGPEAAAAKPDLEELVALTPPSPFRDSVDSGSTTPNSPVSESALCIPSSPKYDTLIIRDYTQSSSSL

The test has as its target mGluR5 (Homo sapiens, UniProt P41594). Description: mGluR5 positive allosteric modulator (PAM) functional assay. In kind it is cell-based.
Turning to `CCN(CC)C(C)c1nc(-c2ccc(C#Cc3cccc(F)c3)cn2)no1` (stereo not drawn) [Compound 111, N,N-diethyl-1-(3-(5-((3-fluorophenyl)ethynyl)pyridin-2-yl)-1,2,4-oxadiazol-5-yl)ethanamine], the concentration for a half-maximal effect (EC50) was not above 30 nM.
The compound `CC[C@@H](C)c1nc(-c2ccc(C#Cc3cccc(F)c3)cc2)no1` (single isomer, unassigned) [Compound 31] gave an EC50 of 300 to 1000 nM.
For `CCC(CC)c1nc(-c2ccc(C#Cc3ccncc3)cn2)no1` [Compound 160, 5-(pentan-3-yl)-3-(5-(pyridin-4-ylethynyl)pyridin-2-yl)-1,2,4-oxadiazole] the value was 30 to 100 nM.
The compound `Fc1cccc(C#Cc2ccc(-c3noc(C4CCCO4)n3)cc2)c1` (stereo not drawn) [Compound 39, 3-(4-((3-fluorophenyl)ethynyl)phenyl)-5-(tetrahydrofuran-2-yl)-1,2,4-oxadiazole] displayed a concentration for a half-maximal effect (EC50) of 300 to 1000 nM.
With `CCN(C)c1nc(-c2ccc(C#Cc3cccc(F)c3)cc2)no1` [Compound 61, N-ethyl-3-(4-((3-fluorophenyl)ethynyl)phenyl)-N-methyl-1,2,4-oxadiazol-5-amine] the figure was 300 to 1000 nM; with `CC1(c2nc(-c3ccc(C#Cc4cccc(F)c4)cn3)no2)CCCN1` (stereo not drawn) [Compound 122, 3-(5-((3-fluorophenyl)ethynyl)pyridin-2-yl)-5-(2-methylpyrrolidin-2-yl)-1,2,4-oxadiazole], 100 to 300 nM.
With `Fc1cccc(C#Cc2ccc(-c3noc(C4CCCN4C4CCC4)n3)nc2)c1` (stereo not drawn) [Compound 126, 5-(1-cyclobutylpyrrolidin-2-yl)-3-(5-((3-fluorophenyl)ethynyl)pyridin-2-yl)-1,2,4-oxadiazole] the figure was 30 to 100 nM.
`CCC(c1nc(-c2ccc(C#Cc3cccc(F)c3)cn2)no1)N(C)C` (stereo not drawn) [Compound 116, 1-(3-(5-((3-fluorophenyl)ethynyl)pyridin-2-yl)-1,2,4-oxadiazol-5-yl)-N,N-dimethylpropan-1-amine] returned a half-maximal effective concentration (EC50) not above 30 nM.
For the compound `CCC(C)c1nc(-c2ccc(C#Cc3ccccn3)cn2)no1` (stereo not drawn) [Compound 134, 5-(sec-butyl)-3-(5-(pyridin-2-ylethynyl)pyridin-2-yl)-1,2,4-oxadiazole], the EC50 lay in the range of 30 to 100 nM.
For `CC(c1nc(-c2ccc(C#Cc3ccccn3)cn2)no1)N1CCCC1` (stereo not drawn) [Compound 142, 3-(5-(pyridin-2-ylethynyl)pyridin-2-yl)-5-(1-(pyrrolidin-1-yl)ethyl)-1,2,4-oxadiazole], the EC50 lay within 30 to 100 nM.
The compound `CN1C[C@H](F)C[C@@H]1c1nc(-c2ccc(C#Cc3ccccn3)cn2)no1` [Compound 169, 5-((2R,4R)-4-fluoro-1-methylpyrrolidin-2-yl)-3-(5-(pyridin-2-ylethynyl)pyridin-2-yl)-1,2,4-oxadiazole] yielded a half-maximal effective concentration (EC50) of 300 to 1000 nM.
On to `Fc1cccc(C#Cc2ccc(-c3noc(C4CCCN4)n3)nc2)c1` (stereo not drawn) [Compound 119, 3-(5-((3-fluorophenyl)ethynyl)pyridin-2-yl)-5-(pyrrolidin-2-yl)-1,2,4-oxadiazole], for which the EC50 was in the range of 300 to 1000 nM.
As for `COC(C)c1nc(-c2ccc(C#Cc3ccncc3)nc2)no1` (stereo not drawn) [Compound 92, 5-(1-methoxyethyl)-3-(6-(pyridin-4-ylethynyl)pyridin-3-yl)-1,2,4-oxadiazole], the EC50 was in the range of 100 to 300 nM.
Regarding `CC(c1nc(-c2ccc(C#Cc3cccc(F)c3)cc2)no1)N(C)C1CC1` (stereo not drawn) [Compound 54, N-(1-(3-(4-((3-fluorophenyl)ethynyl)phenyl)-1,2,4-oxadiazol-5-yl)ethyl)-N-methylcyclopropanamine], the EC50 is 300 to 1000 nM.
In turn, `CC(C)NC(C)c1nc(-c2ccc(C#Cc3cccc(F)c3)cn2)no1` (stereo not drawn) [Compound 110, N-(1-(3-(5-((3-fluorophenyl)ethynyl)pyridin-2-yl)-1,2,4-oxadiazol-5-yl)ethyl)propan-2-amine] returned a concentration giving a half-maximal response (EC50) of 30 to 100 nM.
Take `Fc1cccc(C#Cc2ccc(-c3noc(C4CCCC4)n3)cn2)c1` [Compound 83, 5-cyclopentyl-3-(6-((3-fluorophenyl)ethynyl)pyridin-3-yl)-1,2,4-oxadiazole]: the half-maximal effective concentration (EC50) is 100 to 300 nM.
`Fc1cccc(C#Cc2ccc(-c3noc(C4CCCN4)n3)nc2)c1` (stereo in doubt) [Compound 121, (S)-3-(5-((3-fluorophenyl)ethynyl)pyridin-2-yl)-5-(pyrrolidin-2-yl)-1,2,4-oxadiazole] showed an EC50 of 300 to 1000 nM.
Compound `CC[C@@H](C)c1nc(-c2ccc(C#Cc3ccncc3)cc2)no1` (single isomer, unassigned) [Compound 73] gave a 50% effective concentration (EC50) of 30 to 100 nM.
As for `Fc1cccc(C#Cc2ccc(-c3noc(C4CCCN4C4CCC4)n3)cc2)c1` (stereo not drawn) [Compound 50, 5-(1-cyclobutylpyrrolidin-2-yl)-3-(4-((3-fluorophenyl)ethynyl)phenyl)-1,2,4-oxadiazole], the EC50 was in the range of 300 to 1000 nM.
As to `CCC(OC)c1nc(-c2ccc(C#Cc3ccncc3)cn2)no1` (stereo not drawn) [Compound 161, 5-(1-methoxypropyl)-3-(5-(pyridin-4-ylethynyl)pyridin-2-yl)-1,2,4-oxadiazole], the EC50 lay in the range of 30 to 100 nM.
Regarding `CCC(CC)c1nc(-c2ccc(C#Cc3ccncc3)nc2)no1` [Compound 91, 5-(pentan-3-yl)-3-(6-(pyridin-4-ylethynyl)pyridin-3-yl)-1,2,4-oxadiazole], the concentration giving a half-maximal response (EC50) is not above 30 nM.
For `CCC(C)c1nc(-c2ccc(C#Cc3cccnc3)cc2)no1` (stereo not drawn) [Compound 81, 5-(sec-butyl)-3-(4-(pyridin-3-ylethynyl)phenyl)-1,2,4-oxadiazole], the EC50 was in the range of 300 to 1000 nM.
Compound `C#CCN1CCCC1c1nc(-c2ccc(C#Cc3cccc(F)c3)cn2)no1` (stereo not drawn) [Compound 124, 3-(5-((3-fluorophenyl)ethynyl)pyridin-2-yl)-5-(1-(prop-2-yn-1-yl)pyrrolidin-2-yl)-1,2,4-oxadiazole] registered a 50% effective concentration (EC50) not above 30 nM.
`CCC(OC)c1nc(-c2ccc(C#Cc3ccncc3)cc2)no1` (stereo not drawn) [Compound 76, 5-(1-methoxypropyl)-3-(4-(pyridin-4-ylethynyl)phenyl)-1,2,4-oxadiazole] showed an EC50 of 30 to 100 nM.
Regarding `Fc1cccc(C#Cc2ccc(-c3noc(C4CCCN4)n3)nc2)c1` (stereo in doubt) [Compound 120, (R)-3-(5-((3-fluorophenyl)ethynyl)pyridin-2-yl)-5-(pyrrolidin-2-yl)-1,2,4-oxadiazole], the concentration for a half-maximal effect (EC50) lay in the range of 100 to 300 nM.
The compound `CN1CC(F)(F)C[C@H]1c1nc(-c2ccc(C#Cc3ccccn3)cn2)no1` [Compound 155, (S)-5-(4,4-difluoro-1-methylpyrrolidin-2-yl)-3-(5-(pyridin-2-ylethynyl)pyridin-2-yl)-1,2,4-oxadiazole] returned a half-maximal effective concentration (EC50) of 100 to 300 nM.
Turning to `CCN1CCCC1c1nc(-c2ccc(C#Cc3cccc(F)c3)cc2)no1` (stereo not drawn) [Compound 48, 5-(1-ethylpyrrolidin-2-yl)-3-(4-((3-fluorophenyl)ethynyl)phenyl)-1,2,4-oxadiazole], the concentration giving a half-maximal response (EC50) was 100 to 300 nM.
With `CC(NC1CC1)c1nc(-c2ccc(C#Cc3cccc(F)c3)cn2)no1` (stereo not drawn) [Compound 109, N-(1-(3-(5-((3-fluorophenyl)ethynyl)pyridin-2-yl)-1,2,4-oxadiazol-5-yl)ethyl)cyclopropanamine] the figure was not above 30 nM.
For `CCC(C)c1nnc(-c2ccc(C#Cc3cccc(F)c3)cc2)o1` (stereo not drawn) [Compound 2, 2-(sec-butyl)-5-(4-((3-fluorophenyl)ethynyl)phenyl)-1,3,4-oxadiazole], the EC50 is 100 to 300 nM.
Compound `CC(c1nc(-c2ccc(C#Cc3cccc(F)c3)cc2)no1)N1CCC1` (stereo not drawn) [Compound 52, 5-(1-(azetidin-1-yl)ethyl)-3-(4-((3-fluorophenyl)ethynyl)phenyl)-1,2,4-oxadiazole] came in with an EC50 of 300 to 1000 nM.
Regarding `C(#Cc1ccccn1)c1ccc(-c2noc(C34CCCN3CCC4)n2)nc1` [Compound 170, 5-(hexahydro-1H-pyrrolizin-7a-yl)-3-(5-(pyridin-2-ylethynyl)pyridin-2-yl)-1,2,4oxadiazole], the EC50 lay within 30 to 100 nM.
For `CCC(CC)c1nc(-c2ccc(C#Cc3ccccn3)nc2)no1` [Compound 87, 5-(pentan-3-yl)-3-(6-(pyridin-2-ylethynyl)pyridin-3-yl)-1,2,4-oxadiazole], the concentration giving a half-maximal response (EC50) was not above 30 nM.
The compound `CCC(C)c1nc(-c2ccc(C#Cc3cccc(F)c3)nc2)no1` (stereo not drawn) [Compound 82, 5-(sec-butyl)-3-(6-((3-fluorophenyl)ethynyl)pyridin-3-yl)-1,2,4-oxadiazole] yielded an EC50 of 30 to 100 nM.
`CN1CCC1c1nc(-c2ccc(C#Cc3ccccn3)cn2)no1` (stereo not drawn) [Compound 150, 5-(1-methylazetidin-2-yl)-3-(5-(pyridin-2-ylethynyl)pyridin-2-yl)-1,2,4-oxadiazole] gave an EC50 of 300 to 1000 nM.
In turn, `C(#Cc1ccccn1)c1ccc(-c2noc(C3CCCN3)n2)nc1` (stereo not drawn) [Compound 151, 3-(5-(pyridin-2-ylethynyl)pyridin-2-yl)-5-(pyrrolidin-2-yl)-1,2,4-oxadiazole] returned a 50% effective concentration (EC50) of 300 to 1000 nM.
`C[C@H](c1nc(-c2ccc(C#Cc3cccc(F)c3)cn2)no1)N(C)C` [Compound 105, (R)-1-(3-(5-((3-fluorophenyl)ethynyl)pyridin-2-yl)-1,2,4-oxadiazol-5-yl)-N,N-dimethylethanamine] had an EC50 of 30 to 100 nM.
The compound `C(#Cc1ccc(-c2noc(C3CCCN3)n2)cc1)c1ccncc1` (stereo not drawn) [Compound 77, 3-(4-(pyridin-4-ylethynyl)phenyl)-5-(pyrrolidin-2-yl)-1,2,4-oxadiazole] yielded a half-maximal effective concentration (EC50) of 100 to 300 nM.
With `CC[C@H](C)c1nc(-c2ccc(C#Cc3ccncc3)cc2)no1` (single isomer, unassigned) [Compound 72] the figure was 100 to 300 nM; with `O[C@H]1CN[C@H](c2nc(-c3ccc(C#Cc4cccc(F)c4)cn3)no2)C1` [Compound 129, (3R,5S)-5-(3-(5-((3-fluorophenyl)ethynyl)pyridin-2-yl)-1,2,4-oxadiazol-5-yl)pyrrolidin-3-ol], 300 to 1000 nM.
Take `CNCc1nc(-c2ccc(C#Cc3cccc(F)c3)cn2)no1` [Compound 102, 1-(3-(5-((3-fluorophenyl)ethynyl)pyridin-2-yl)-1,2,4-oxadiazol-5-yl)-N-methylmethanamine]: the half-maximal effective concentration (EC50) lay within 300 to 1000 nM.
In the case of `CCC(C)c1nc(-c2ccc(C#Cc3ccccn3)cc2)no1` (stereo not drawn) [Compound 67], the EC50 was not above 30 nM.
For `CC(C)(C)OC(=O)N1CCC1c1nc(-c2ccc(C#Cc3cccc(F)c3)cn2)no1` (stereo not drawn) [Compound 99, tert-butyl 2-(3-(5-((3-fluorophenyl)ethynyl)pyridin-2-yl)-1,2,4-oxadiazol-5-yl)azetidine-1-carboxylate] the value was 300 to 1000 nM.
